Measurements published in patent US12478680B2, “Hydrogels with biodegradable crosslinking” (ProLynx LLC, priority 2011, dated 2025).

Settings: pH 7.4

Row | t1/2 for release into solution [min] | Substance
1 | 24 | carbonic anhydrase
2 | ~20 | myoglobin
